Experimental data reported in patent US20180360100A1 (SCIENTIFIC HOLDINGS, LLC, priority 2017, published 2018).
Entries after “also recorded” stand apart in the source; their conditions may differ.

Legend:
[1] = biological target: CB1 (Homo sapiens, UniProt P21554); details: cited from earlier work
[2] = biological target: CB2 (Homo sapiens, UniProt P34972); details: cited from earlier work
[3] = system: cannabinoid receptors; details: cited from earlier work
[4] = Solubilities of pigments in diluents, terpenes and cannabinoids; details: in OBP (dipropylene glycol), nexus, terpenes, cannabinoids
Text: Solubilities of Pigments. The present disclosure encompasses solubility embodiments.

[5] = system: cannabinoid receptors; details: cited from earlier work; remark: listed apart in the source

Chain of CB1 (P21554 whole entry, species assumed): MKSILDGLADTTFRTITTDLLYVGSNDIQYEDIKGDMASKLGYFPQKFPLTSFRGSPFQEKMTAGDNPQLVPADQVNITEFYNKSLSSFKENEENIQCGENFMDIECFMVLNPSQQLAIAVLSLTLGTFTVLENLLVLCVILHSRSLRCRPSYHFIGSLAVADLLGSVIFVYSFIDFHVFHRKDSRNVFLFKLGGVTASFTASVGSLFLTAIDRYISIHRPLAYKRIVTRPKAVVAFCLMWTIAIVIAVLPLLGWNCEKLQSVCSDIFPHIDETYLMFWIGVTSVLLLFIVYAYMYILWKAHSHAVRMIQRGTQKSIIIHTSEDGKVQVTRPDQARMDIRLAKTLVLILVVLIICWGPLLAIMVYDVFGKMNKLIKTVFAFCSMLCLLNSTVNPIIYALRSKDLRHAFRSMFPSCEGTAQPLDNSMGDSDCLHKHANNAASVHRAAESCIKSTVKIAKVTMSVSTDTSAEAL
Chain of CB2 (P34972 whole entry, species assumed): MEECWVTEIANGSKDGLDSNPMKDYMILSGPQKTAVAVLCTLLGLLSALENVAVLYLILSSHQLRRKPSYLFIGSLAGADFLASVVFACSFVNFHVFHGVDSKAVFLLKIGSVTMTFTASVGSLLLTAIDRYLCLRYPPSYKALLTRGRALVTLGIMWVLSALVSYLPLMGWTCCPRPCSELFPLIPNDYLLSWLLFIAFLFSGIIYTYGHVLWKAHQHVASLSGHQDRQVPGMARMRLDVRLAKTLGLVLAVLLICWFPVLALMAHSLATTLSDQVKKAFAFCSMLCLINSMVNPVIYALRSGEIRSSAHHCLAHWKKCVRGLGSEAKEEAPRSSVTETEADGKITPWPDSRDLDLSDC

Row | Compound | binding to CB1 [1] | binding to CB2 [2] | potentiation of binding of 2-arachidonoyl-glycerol [3] | solubility of pigment [4] | potentiation of activity of ligands of cannabinoid receptors [5]
1 | CCCCC/C=C\C/C=C\CCCCCCCC(=O)OC(CO)CO [2-linoleoyl-glycerol] | do not bind | do not bind | potentiate the binding of 2-arachidonoyl-glycerol |  | 
2 | CCCCCCCCCCCCCCCC(=O)OC(CO)CO [2-palmitoyl-glycerol] | do not bind | do not bind | potentiate the binding of 2-arachidonoyl-glycerol |  | 
3 | CC1=C[C@H](O)CC(C)(C)[C@H]1/C=C/C(C)=C/C=C/C(C)=C/C=C/C=C(C)/C=C/C=C(C)/C=C/C1=C(C)C[C@@H](O)CC1(C)C [Lutein] |  |  |  | soluble in both obp, nexus, terpenes, and cannabinoids | 
4 | CCCCCCCCCCCCCCCC(=O)NCCO [palmitoylethanolamine] | do not bind | do not bind |  |  | potentiate activity of ligands of cannabinoid receptors
5 | CCCCCCCCCCCCCCCCCC(=O)NCCO [stearoylethanolamine] | do not bind | do not bind |  |  | potentiate activity of ligands of cannabinoid receptors
6 | Anthocyanins |  |  |  | only soluble in OBP (dipropylene glycol), not it nexus or cannabinoids alone; also recorded: only soluble in dipropylene glycol (i.e. OBP), not in nexus or cannabinoids alone | 
7 | carotene |  |  |  | soluble in both obp, nexus, terpenes, and cannabinoids | 
